# Experimental data reported in PubChem BioAssay (NCI).
#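 1) Cells in 96-well plates. 2) Compound, 48 h, 5 concentrations. 3) Linear interpolation between surrounding doses. 4) Unreached endpoint = highest concentration. TGI: concentration producing complete growth inhibition.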
# Legend:
# Test in all cases: inhibition of tumour cell growth, NCI panel, 48 h
# LOX IMVI melanoma = tested on: LOX IMVI melanoma
# OVCAR-5 ovarian = tested on: OVCAR-5 ovarian
# NCI-H23 lung = tested on: NCI-H23 lung
# SK-OV-3 ovarian = tested on: SK-OV-3 ovarian
# RXF 393 renal = tested on: RXF 393 renal
# T-47D breast = tested on: T-47D breast
# DU-145 prostate = tested on: DU-145 prostate
# UACC-62 melanoma = tested on: UACC-62 melanoma
# HCT-116 colon = tested on: HCT-116 colon
# SK-MEL-28 melanoma = tested on: SK-MEL-28 melanoma
# OVCAR-8 ovarian = tested on: OVCAR-8 ovarian
# MALME-3M melanoma = tested on: MALME-3M melanoma
# SW-620 colon = tested on: SW-620 colon
# IGROV1 ovarian = tested on: IGROV1 ovarian
# KM12 colon = tested on: KM12 colon
# RPMI-8226 leukemia = tested on: RPMI-8226 leukemia
# M14 melanoma = tested on: M14 melanoma
# PC-3 prostate = tested on: PC-3 prostate
# SN12C renal = tested on: SN12C renal
# ACHN renal = tested on: ACHN renal
# COLO 205 colon = tested on: COLO 205 colon
# MCF7 breast = tested on: MCF7 breast
# U251 CNS = tested on: U251 CNS
# A549 NSCLC = tested on: A549 NSCLC
# NCI-H522 lung = tested on: NCI-H522 lung
# SK-MEL-5 melanoma = tested on: SK-MEL-5 melanoma
# HL-60(TB) leukemia = tested on: HL-60(TB) leukemia
# EKVX NSCLC = tested on: EKVX NSCLC
# K-562 leukemia = tested on: K-562 leukemia
# HOP-92 NSCLC = tested on: HOP-92 NSCLC
# SK-MEL-2 melanoma = tested on: SK-MEL-2 melanoma
# A498 renal = tested on: A498 renal
# SNB-19 CNS = tested on: SNB-19 CNS
# HCT-15 colon = tested on: HCT-15 colon
# MDA-MB-231 breast = tested on: MDA-MB-231 breast
# NCI-H226 lung = tested on: NCI-H226 lung
# OVCAR-4 ovarian = tested on: OVCAR-4 ovarian
# HOP-62 NSCLC = tested on: HOP-62 NSCLC
# SF-539 CNS = tested on: SF-539 CNS
# SR leukemia = tested on: SR leukemia
# SNB-75 CNS = tested on: SNB-75 CNS
# TK-10 renal = tested on: TK-10 renal
# SF-295 CNS = tested on: SF-295 CNS
# CCRF-CEM leukemia = tested on: CCRF-CEM leukemia
# NCI/ADR-RES ovarian = tested on: NCI/ADR-RES ovarian
# UO-31 renal = tested on: UO-31 renal
# UACC-257 melanoma = tested on: UACC-257 melanoma
# SF-268 CNS = tested on: SF-268 CNS
# HCC-2998 colon = tested on: HCC-2998 colon
# 786-0 renal = tested on: 786-0 renal
# MDA-MB-435 = tested on: MDA-MB-435
# HS 578T breast = tested on: HS 578T breast
# OVCAR-3 ovarian = tested on: OVCAR-3 ovarian
# NCI-H460 lung = tested on: NCI-H460 lung
# MOLT-4 leukemia = tested on: MOLT-4 leukemia
# BT-549 breast = tested on: BT-549 breast
# MDA-N = tested on: MDA-N
# HT29 colon = tested on: HT29 colon
# CAKI-1 renal = tested on: CAKI-1 renal
structure (smiles),measurement,setting,value
Nc1nc(N)c(-c2cccc(C(F)(F)F)c2)c(Cc2cccc(C(F)(F)F)c2)n1,TGI,LOX IMVI melanoma,17.9 µM
same,TGI,OVCAR-5 ovarian,18.8 µM
same,TGI,NCI-H23 lung,13 µM
same,TGI,SK-OV-3 ovarian,28.1 µM
same,TGI,RXF 393 renal,22.5 µM
same,TGI,T-47D breast,32.4 µM
same,TGI,DU-145 prostate,21.5 µM
same,TGI,UACC-62 melanoma,14.8 µM
same,TGI,HCT-116 colon,12.2 µM
same,TGI,SK-MEL-28 melanoma,24.8 µM
same,TGI,OVCAR-8 ovarian,24.6 µM
same,TGI,MALME-3M melanoma,25.7 µM
same,TGI,SW-620 colon,26.7 µM
same,TGI,IGROV1 ovarian,19.3 µM
same,TGI,KM12 colon,21.7 µM
same,TGI,RPMI-8226 leukemia,21.6 µM
same,TGI,M14 melanoma,17.4 µM
same,TGI,PC-3 prostate,24.1 µM
same,TGI,SN12C renal,15.3 µM
same,TGI,ACHN renal,13.5 µM
same,TGI,COLO 205 colon,19.6 µM
same,TGI,MCF7 breast,18.5 µM
same,TGI,U251 CNS,29.6 µM
same,TGI,A549 NSCLC,13.3 µM
same,TGI,NCI-H522 lung,15.4 µM
same,TGI,SK-MEL-5 melanoma,17.6 µM
same,TGI,HL-60(TB) leukemia,17.7 µM
same,TGI,EKVX NSCLC,21.1 µM
same,TGI,K-562 leukemia,17.7 µM
same,TGI,HOP-92 NSCLC,25.8 µM
same,TGI,SK-MEL-2 melanoma,20.7 µM
same,TGI,A498 renal,15.9 µM
same,TGI,SNB-19 CNS,19.2 µM
same,TGI,HCT-15 colon,16.5 µM
same,TGI,MDA-MB-231 breast,26.2 µM
same,TGI,NCI-H226 lung,30.1 µM
same,TGI,OVCAR-4 ovarian,31 µM
same,TGI,HOP-62 NSCLC,30.1 µM
same,TGI,SF-539 CNS,16.6 µM
same,TGI,SR leukemia,17.5 µM
same,TGI,SNB-75 CNS,29 µM
same,TGI,TK-10 renal,20.9 µM
same,TGI,SF-295 CNS,22.7 µM
same,TGI,CCRF-CEM leukemia,44.3 µM
same,TGI,NCI/ADR-RES ovarian,23.1 µM
same,TGI,UO-31 renal,19.4 µM
same,TGI,UACC-257 melanoma,20.2 µM
same,TGI,SF-268 CNS,20 µM
same,TGI,HCC-2998 colon,11.3 µM
same,TGI,786-0 renal,15.3 µM
same,TGI,MDA-MB-435,22.5 µM
same,TGI,HS 578T breast,35 µM
same,TGI,OVCAR-3 ovarian,22.1 µM
same,TGI,NCI-H460 lung,13.5 µM
same,TGI,MOLT-4 leukemia,17.7 µM
same,TGI,BT-549 breast,22.4 µM
same,TGI,MDA-N,17.9 µM
same,TGI,HT29 colon,10.9 µM
same,TGI,CAKI-1 renal,21.9 µM
OC1c2c(ccc3c2CCC3)CC12Cc1ccccc1C2 (stereo not drawn),TGI,LOX IMVI melanoma,29.4 µM
same,TGI,OVCAR-5 ovarian,31.3 µM
same,TGI,NCI-H23 lung,30.9 µM
same,TGI,SK-OV-3 ovarian,32.9 µM
same,TGI,RXF 393 renal,27.2 µM
same,TGI,T-47D breast,53.5 µM
same,TGI,DU-145 prostate,31.2 µM
same,TGI,UACC-62 melanoma,29.4 µM
same,TGI,HCT-116 colon,29.7 µM
same,TGI,SK-MEL-28 melanoma,30.5 µM
same,TGI,OVCAR-8 ovarian,33.7 µM
same,TGI,MALME-3M melanoma,25.2 µM
same,TGI,SW-620 colon,32.8 µM
same,TGI,IGROV1 ovarian,47.5 µM
same,TGI,KM12 colon,29.7 µM
same,TGI,RPMI-8226 leukemia,50.8 µM
same,TGI,M14 melanoma,28.8 µM
same,TGI,PC-3 prostate,30.3 µM
same,TGI,SN12C renal,28.8 µM
same,TGI,ACHN renal,32.7 µM
same,TGI,COLO 205 colon,31.9 µM
same,TGI,MCF7 breast,32.8 µM
same,TGI,U251 CNS,29.7 µM
same,TGI,A549 NSCLC,34.5 µM
same,TGI,NCI-H522 lung,30.3 µM
same,TGI,SK-MEL-5 melanoma,29.3 µM
same,TGI,HL-60(TB) leukemia,44.7 µM
same,TGI,EKVX NSCLC,31.4 µM
same,TGI,K-562 leukemia,54.9 µM
same,TGI,HOP-92 NSCLC,25.8 µM
same,TGI,SK-MEL-2 melanoma,28.8 µM
same,TGI,A498 renal,30.2 µM
same,TGI,SNB-19 CNS,32.9 µM
same,TGI,HCT-15 colon,30.2 µM
same,TGI,MDA-MB-231 breast,29.4 µM
same,TGI,NCI-H226 lung,26.6 µM
same,TGI,OVCAR-4 ovarian,38.3 µM
same,TGI,HOP-62 NSCLC,30.1 µM
same,TGI,SF-539 CNS,35.8 µM
same,TGI,SR leukemia,44.6 µM
same,TGI,SNB-75 CNS,35.6 µM
same,TGI,TK-10 renal,28 µM
same,TGI,SF-295 CNS,31.9 µM
same,TGI,CCRF-CEM leukemia,83.1 µM
same,TGI,NCI/ADR-RES ovarian,35.4 µM
same,TGI,UO-31 renal,27.4 µM
same,TGI,UACC-257 melanoma,27.4 µM
same,TGI,SF-268 CNS,29.4 µM
same,TGI,HCC-2998 colon,27.5 µM
same,TGI,786-0 renal,30.9 µM
same,TGI,MDA-MB-435,29.5 µM
same,TGI,HS 578T breast,35.5 µM
same,TGI,OVCAR-3 ovarian,26.5 µM
same,TGI,NCI-H460 lung,33 µM
same,TGI,MOLT-4 leukemia,> 100 µM
same,TGI,BT-549 breast,31.6 µM
same,TGI,MDA-N,28.8 µM
same,TGI,HT29 colon,31.3 µM
same,TGI,CAKI-1 renal,33.4 µM
